In PubChem BioAssay (NCI):
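96-well plates; 48 h exposure; 5 concentrations. Endpoints by linear interpolation between flanking doses. Not reached: highest tested concentration assigned. Here, GI50 denotes the concentration required for 50% inhibition of growth. TGI denotes the concentration required for complete inhibition of growth.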

Legend:
Experiment in all cases: inhibition of tumour cell growth, NCI panel, 48 h
[1] = test system: CCRF-CEM leukemia
[2] = test system: T-47D breast
[3] = test system: OVCAR-8 ovarian
[4] = test system: RPMI-8226 leukemia
[5] = test system: EKVX NSCLC
[6] = test system: SF-268 CNS
[7] = test system: NCI-H226 lung
[8] = test system: SK-OV-3 ovarian
[9] = test system: HOP-92 NSCLC
[10] = test system: A549 NSCLC
[11] = test system: SK-MEL-28 melanoma
[12] = test system: MOLT-4 leukemia
[13] = test system: RXF 393 renal
[14] = test system: MCF7 breast
[15] = test system: NCI-H460 lung
[16] = test system: KM12 colon
[17] = test system: A498 renal
[18] = test system: HS 578T breast
[19] = test system: OVCAR-3 ovarian
[20] = test system: HCT-15 colon
[21] = test system: U251 CNS
[22] = test system: LOX IMVI melanoma
[23] = test system: IGROV1 ovarian
[24] = test system: SN12C renal
[25] = test system: K-562 leukemia
[26] = test system: M14 melanoma
[27] = test system: HL-60(TB) leukemia
[28] = test system: SW-620 colon
[29] = test system: UACC-62 melanoma
[30] = test system: SNB-75 CNS
[31] = test system: OVCAR-4 ovarian
[32] = test system: TK-10 renal
[33] = test system: CAKI-1 renal
[34] = test system: 786-0 renal
[35] = test system: MDA-MB-435
[36] = test system: SR leukemia
[37] = test system: COLO 205 colon
[38] = test system: NCI-H522 lung
[39] = test system: HCT-116 colon
[40] = test system: SF-539 CNS
[41] = test system: SK-MEL-5 melanoma
[42] = test system: MDA-MB-231 breast
[43] = test system: UACC-257 melanoma
[44] = test system: UO-31 renal
[45] = test system: SK-MEL-2 melanoma
[46] = test system: DU-145 prostate
[47] = test system: NCI-H23 lung
[48] = test system: PC-3 prostate
[49] = test system: ACHN renal
[50] = test system: NCI/ADR-RES ovarian
[51] = test system: HT29 colon
[52] = test system: SNB-19 CNS
[53] = test system: SF-295 CNS
[54] = test system: BT-549 breast
[55] = test system: HOP-62 NSCLC
[56] = test system: HCC-2998 colon
[57] = test system: OVCAR-5 ovarian
[58] = test system: MALME-3M melanoma

CN(C)c1nc(N)nc(CCl)n1
TGI [1]: 58.6 µM
TGI [2]: > 100 µM
TGI [3]: > 100 µM
TGI [4]: > 100 µM
TGI [5]: 41.6 µM
TGI [6]: > 100 µM
TGI [7]: > 100 µM
TGI [8]: > 100 µM
TGI [9]: 45.6 µM
TGI [10]: > 100 µM
TGI [11]: > 100 µM
TGI [12]: > 100 µM
TGI [13]: > 100 µM
TGI [14]: > 100 µM
TGI [15]: > 100 µM
TGI [16]: > 100 µM
TGI [17]: 70.8 µM
TGI [18]: > 100 µM
TGI [19]: 49 µM
TGI [20]: 93 µM
TGI [21]: > 100 µM
TGI [22]: 21.9 µM
TGI [23]: 35 µM
TGI [24]: > 100 µM
TGI [25]: 84.4 µM
TGI [26]: > 100 µM
TGI [27]: 78.2 µM
TGI [28]: 87.7 µM
TGI [29]: 41.5 µM
TGI [30]: 11.3 µM
TGI [31]: 38.2 µM
TGI [32]: > 100 µM
TGI [33]: 18 µM
TGI [34]: 58.3 µM
TGI [35]: > 100 µM
TGI [36]: 65.8 µM
TGI [37]: 61.8 µM
TGI [38]: 25 µM
TGI [39]: > 100 µM
TGI [40]: 60.2 µM
TGI [41]: 90.6 µM
TGI [42]: 72.4 µM
TGI [43]: > 100 µM
TGI [44]: 26.1 µM
TGI [45]: > 100 µM
TGI [46]: > 100 µM
TGI [47]: 68.9 µM
TGI [48]: > 100 µM
TGI [49]: 39.7 µM
TGI [50]: 86.8 µM
TGI [51]: > 100 µM
TGI [52]: > 100 µM
TGI [53]: > 100 µM
TGI [54]: > 100 µM
TGI [55]: 46.8 µM
TGI [56]: > 100 µM
TGI [57]: > 100 µM

Clc1ccc(Nc2nnc(CNc3ccccc3)c3ccccc23)cc1
GI50 [1]: 3.53 µM
TGI [1]: 17.6 µM
GI50 [2]: 1.17 µM
TGI [2]: 8.28 µM
GI50 [3]: 4.63 µM
TGI [3]: 16.8 µM
GI50 [4]: 2.1 µM
TGI [4]: 7.71 µM
GI50 [5]: 1.61 µM
TGI [5]: 15 µM
GI50 [6]: 3.28 µM
TGI [6]: 14.5 µM
GI50 [7]: 2.52 µM
TGI [7]: 7.98 µM
GI50 [8]: 3.17 µM
TGI [8]: 11.4 µM
GI50 [9]: 0.777 µM
TGI [9]: 6.3 µM
GI50 [10]: 3.17 µM
TGI [10]: 20 µM
GI50 [11]: 3.67 µM
TGI [11]: 10.5 µM
GI50 [12]: 1.71 µM
TGI [12]: 8.74 µM
GI50 [13]: 2.6 µM
TGI [13]: 8.12 µM
GI50 [14]: 2.68 µM
TGI [14]: 11.1 µM
GI50 [15]: 3.21 µM
TGI [15]: 9.97 µM
GI50 [16]: 3.05 µM
TGI [16]: 9.92 µM
GI50 [17]: 1.45 µM
TGI [17]: 6.06 µM
GI50 [18]: 2.95 µM
TGI [18]: 12.9 µM
GI50 [19]: 3.51 µM
TGI [19]: 8.69 µM
GI50 [20]: 2.99 µM
TGI [20]: 9.39 µM
GI50 [21]: 3.28 µM
TGI [21]: 7.33 µM
GI50 [22]: 1.57 µM
TGI [22]: 4.97 µM
GI50 [23]: 1.93 µM
TGI [23]: 10.7 µM
GI50 [24]: 3.95 µM
TGI [24]: 18.9 µM
GI50 [25]: 1.71 µM
TGI [25]: 14.5 µM
GI50 [26]: 1.74 µM
TGI [26]: 6.65 µM
GI50 [27]: 3.71 µM
TGI [27]: 13 µM
GI50 [28]: 3.84 µM
TGI [28]: 11.1 µM
GI50 [29]: 1.25 µM
TGI [29]: 5.7 µM
GI50 [30]: 0.871 µM
TGI [30]: 7.05 µM
GI50 [31]: 3 µM
TGI [31]: > 25 µM
GI50 [34]: 4.01 µM
TGI [34]: 12.5 µM
GI50 [35]: 1.47 µM
TGI [35]: 7.88 µM
GI50 [36]: 1.75 µM
TGI [36]: 12.3 µM
GI50 [37]: 0.915 µM
TGI [37]: 5.39 µM
GI50 [38]: 0.684 µM
TGI [38]: 4.62 µM
GI50 [39]: 1.2 µM
TGI [39]: 5.02 µM
GI50 [40]: 3.67 µM
TGI [40]: 8.09 µM
GI50 [41]: 2.08 µM
TGI [41]: 5.27 µM
GI50 [42]: 1.95 µM
TGI [42]: 8.73 µM
GI50 [43]: 2.74 µM
TGI [43]: 6.87 µM
GI50 [44]: 1.36 µM
TGI [44]: 6.66 µM
GI50 [45]: 2.16 µM
TGI [45]: 5.83 µM
GI50 [46]: 4.55 µM
TGI [46]: > 25 µM
GI50 [47]: 2.5 µM
TGI [47]: 16.4 µM
GI50 [48]: 1.91 µM
TGI [48]: 14.4 µM
GI50 [49]: 3.1 µM
TGI [49]: > 25 µM
GI50 [50]: 4.12 µM
TGI [50]: 17 µM
GI50 [51]: 1.46 µM
TGI [51]: 6.36 µM
GI50 [52]: 4.71 µM
TGI [52]: 22.7 µM
GI50 [53]: 2.98 µM
TGI [53]: 8.77 µM
GI50 [54]: 2.93 µM
TGI [54]: 8.2 µM
GI50 [55]: 2.86 µM
TGI [55]: 8.84 µM
GI50 [58]: 2.66 µM
TGI [58]: 9.92 µM
GI50 [56]: 4.85 µM
TGI [56]: 15.9 µM
GI50 [57]: 4.92 µM
TGI [57]: > 25 µM
